Assay [1] concerns apple powdery mildew. The assay is described as follows: Example 2: foliar applications on jonagold apple trees, incidence and severity of apple powdery mildew. It counts as in vivo, Podosphaera leucotricha. How it is done: Applicant conducted the following study to determine the effect of a 3-(difluoromethyl)-1-methyl-N-[(3R)-1,1,3-trimethyl-2,3-dihydroinden-4-yl]pyrazole-4-carboxamide foliar applications on fungal infections in apple trees.
(§1) 30, 2015. […] Pest incidence, pest severity, and fruit finish were measured.
SYL-COAT™ was used as the source of polyether-polymethylsiloxane-copolymer and polyether silicone containing surfactant (available from Wilbur-Ellis Company).

Assay [2] relates to apple powdery mildew. The assay is described as follows: Example 1: foliar applications on jonagold apple trees, control of apple powdery mildew. It counts as in vivo, Podosphaera leucotricha. Conditions: jonagold trees about 9 years old; five foliar sprays at 14 day intervals, about 300 L/ha; incidence of disease observed about a week after last treatment; rates (own compound 50 g active/ha, silicone surfactant 584 mL/ha, Regulaid surfactant 0.125% v/v, methylated seed oil 0.06% v/v, kresoxim-methyl 224, penthiopyrad 234 g active/ha). From the text:
Applicant conducted the following study to determine the effect of 3-(difluoromethyl)-1-methyl-N-[(3R)-1,1,3-trimethyl-2,3-dihydroinden-4-yl]pyrazole-4-carboxamide foliar applications on fungal infections in apple trees.
A 40% suspension concentrate formulation was used as the source of 3-(difluoromethyl)-1-methyl-N-[(3R)-1,1,3-trimethyl-2,3-dihydroinden-4-yl]pyrazole-4-carboxamide (available from Sumitomo Chemical Company, Tokyo, Japan).
Regulaid® is a nonionic surfactant and was used as the source of the 2-butoxyethanol, poloxalene, and monopropylene glycol surfactant (Regulaid is available from and a registered trademark of KALO, Inc). Regulaid® contains about 90.6% of 2-butoxyethanol, poloxalene, and monopropylene glycol.
Sovran® was used as the source of kresoxim-methyl (available from and a registered trademark of BASF Corporation).
Fontelis® was used as the source of penthiopyrad (available from and a registered trademark of E.I. du Pont).
Slygard® 309 was used as the source of a mixture of 3-(3-hydroxypropyl)-heptamethyltrisiloxane-ethoxylated acetate, polyethylene glycol monallyl acetate and polyethylene glycol diacetate silicone containing surfactant (available from and a registered trademark of Wilbur-Ellis Company). Slygard® 309 contains 100% of the mixture of surfactants.

The subject of another assay is Apples, jonagold variety. As to the kind of experiment: Example 2: fruit finish quality of treated apple trees. Type of assay: in vivo. The conditions noted are these: 80 days after 7th treatment. How it is done: as §1
The mark [3] stands for this setting: 8 days after 4th treatment, rates (own compound 50 g/ha, penthiopyrad 234 g/ha, kresoxim-methyl 224 g/ha, silicone surfactant 8 fl oz/a, Regulaid surfactant 0.125% v/v).

These results are taken from patent publication US9615579B2, “Compositions for powdery mildew control and methods of their use” (Valent U.S.A., Corporation, priority 2015, dated 2017).

In the case of `C[C@@H]1CC(C)(C)c2cccc(NC(=O)c3cn(C)nc3C(F)F)c21` [3-(Difluoromethyl)-1-methyl-N-[(3R)-1,1,3-trimethyl-2,3-dihydroinden-4-yl]pyrazole-4-carboxamide], the “Incidence of Apple Powdery Mildew (%)” value with apple powdery mildew [1] (2 days after 5th treatment) came out at 11.5303 bc %; in the assay with apple powdery mildew [1] (3 days after 6th treatment), 20.4938 c %; with apple powdery mildew [1] (setting [3]) it was 13.0000 b %. The “Severity of Apple Powdery Mildew (%)” value is on record as 1.6836 bc % with apple powdery mildew [1] (2 days after 5th treatment), 4.4196 c % in the assay on apple powdery mildew [1] (3 days after 6th treatment) and 11.5331 bc % in the assay on apple powdery mildew [1] (9 days after 7th treatment). Further, the “% Control” value in the assay on apple powdery mildew [2] is given as 67%. The “Fruit Finish Quality (0 lowest-10 highest)” value (“Fruit Finish Quality” below) in the assay with Apples, jonagold variety is 7.5000 b.

With `CO/N=C(/C(=O)OC)c1ccccc1COc1ccccc1C` [Kresoxim-methyl, kresoxim-methyl], the “Incidence of Apple Powdery Mildew (%)” value was determined as 3.4874 cd % in the assay on apple powdery mildew [1] (2 days after 5th treatment), 12.0332 cd % with apple powdery mildew [1] (3 days after 6th treatment) and 8.7500 bc % in the assay on apple powdery mildew [1] (setting [3]). Further, the entries for the “Severity of Apple Powdery Mildew (%)” value with apple powdery mildew [1] (2 days after 5th treatment), in the assay on apple powdery mildew [1] (3 days after 6th treatment) and in the assay on apple powdery mildew [1] (9 days after 7th treatment) were 0.8465 cd %, 2.9013 c % and 9.0294 bc %, respectively. Besides, the “% Control” value with apple powdery mildew [2] worked out at 63%. Moreover, the “Fruit Finish Quality” value in the assay with Apples, jonagold variety is 8.2500 b.

For the compound `CC(C)CC(C)c1sccc1NC(=O)c1cn(C)nc1C(F)(F)F` (stereo not drawn) [Penthiopyrad, penthiopyrad], the “Incidence of Apple Powdery Mildew (%)” value with apple powdery mildew [1] (2 days after 5th treatment) was found to be 1.4675 cd %; in the assay with apple powdery mildew [1] (3 days after 6th treatment) it was 2.5965 ef %; in the assay with apple powdery mildew [1] (setting [3]), 7.5000 bc %. The “Severity of Apple Powdery Mildew (%)” value in the assay with apple powdery mildew [1] (2 days after 5th treatment) came out at 0.6379 cd %; with apple powdery mildew [1] (3 days after 6th treatment), 0.7932 d %; with apple powdery mildew [1] (9 days after 7th treatment), 7.8439 c %. For the same compound, the “% Control” value in the assay with apple powdery mildew [2] stood at 71%. Moreover, the “Fruit Finish Quality” value in the assay with Apples, jonagold variety is given as 8.0000 b.
